In ChEMBL document CHEMBL1201862, “PubChem BioAssay data set” (2004):
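A five-concentration, 48-hour dose response in 96-well plates underlies each endpoint, interpolated linearly between surrounding concentrations. GI50 is the concentration that inhibits growth by half.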 Active and inactive are the calls of the source. Rule as the data show it: active = GI50 up to about 1.1 µM and inactive = higher.

Legend:
Test in all cases: NCI tumour cell line growth inhibition, 48 h
HCT-15 = test system: HCT-15
HOP-62 = test system: HOP-62
SK-MEL-28 = test system: SK-MEL-28
SK-MEL-2 = test system: SK-MEL-2
RPMI-8226 = test system: RPMI-8226
LOX IMVI = test system: LOX IMVI
HL-60 = test system: HL-60
SF-295 = test system: SF-295
ACHN = test system: ACHN
MDA-MB-231 = test system: MDA-MB-231
EKVX = test system: EKVX
MDA-N = test system: MDA-N
SNB-19 = test system: SNB-19
BT-549 = test system: BT-549
U-251 = test system: U-251
SNB-75 = test system: SNB-75
HCT-116 = test system: HCT-116
SK-MEL-5 = test system: SK-MEL-5
786-0 = test system: 786-0
Malme-3M = test system: Malme-3M

Cc1c(C#N)c2ccccc2c2nc3ccccc3n12
GI50 (HCT-15): > 100 µM | GI50 (HOP-62): 75.5 µM (inactive) | GI50 (SK-MEL-28): > 100 µM (inactive) | GI50 (SK-MEL-2): > 100 µM (inactive) | GI50 (RPMI-8226): > 100 µM (inactive) | GI50 (LOX IMVI): 34.4 µM (inactive) | GI50 (HL-60): > 100 µM (inactive) | GI50 (SF-295): > 100 µM (inactive) | GI50 (ACHN): 64.1 µM (inactive) | GI50 (MDA-MB-231): 20.6 µM (inactive) | GI50 (EKVX): > 100 µM (inactive) | GI50 (MDA-N): 67.6 µM (inactive) | GI50 (SNB-19): > 100 µM (inactive) | GI50 (BT-549): > 100 µM (inactive) | GI50 (U-251): > 100 µM (inactive) | GI50 (SNB-75): 73.3 µM (inactive) | GI50 (HCT-116): 24.9 µM (inactive) | GI50 (SK-MEL-5): 5.82 µM (inactive) | GI50 (786-0): 37.9 µM (inactive)

COc1ccc(/C=C2\N=C(N3CCOCC3)NC2=O)cc1
GI50 (HCT-15): > 100 µM | GI50 (HOP-62): > 100 µM (inactive) | GI50 (Malme-3M): > 100 µM (inactive) | GI50 (SK-MEL-28): > 100 µM (inactive) | GI50 (SK-MEL-2): > 100 µM (inactive) | GI50 (RPMI-8226): > 100 µM (inactive) | GI50 (LOX IMVI): > 100 µM (inactive) | GI50 (HL-60): > 100 µM (inactive) | GI50 (SF-295): > 100 µM (inactive) | GI50 (ACHN): > 100 µM (inactive) | GI50 (MDA-MB-231): > 100 µM (inactive) | GI50 (EKVX): > 100 µM (inactive) | GI50 (MDA-N): > 100 µM (inactive) | GI50 (SNB-19): > 100 µM (inactive) | GI50 (BT-549): > 100 µM (inactive) | GI50 (U-251): > 100 µM (inactive) | GI50 (SNB-75): 58.3 µM (inactive) | GI50 (HCT-116): > 100 µM (inactive) | GI50 (786-0): > 100 µM (inactive)

CCOC(=O)c1cc2c(C(=O)c3ccc([N+](=O)[O-])cc3)c(C(C)=O)ccc2[nH]1
GI50 (HCT-15): 50 µM | GI50 (HOP-62): 4.43 µM (inactive) | GI50 (SK-MEL-28): > 100 µM (inactive) | GI50 (SK-MEL-2): 55.8 µM (inactive) | GI50 (RPMI-8226): > 100 µM (inactive) | GI50 (LOX IMVI): 99.8 µM (inactive) | GI50 (HL-60): > 100 µM (inactive) | GI50 (SF-295): 23.6 µM (inactive) | GI50 (ACHN): 28.7 µM (inactive) | GI50 (MDA-MB-231): 16.9 µM (inactive) | GI50 (EKVX): > 100 µM (inactive) | GI50 (MDA-N): 11.8 µM (inactive) | GI50 (SNB-19): 22.1 µM (inactive) | GI50 (BT-549): 38.5 µM (inactive) | GI50 (U-251): 9.51 µM (inactive) | GI50 (SNB-75): 11.6 µM (inactive) | GI50 (HCT-116): 45.6 µM (inactive) | GI50 (SK-MEL-5): 16.6 µM (inactive) | GI50 (786-0): 7.36 µM (inactive)

O=c1[nH]c(N/N=C\C(O)C(O)C(O)C(O)CO)nc2ccccc12 (stereo not drawn)
GI50 (HCT-15): > 100 µM | GI50 (HOP-62): > 100 µM (inactive) | GI50 (SK-MEL-28): > 100 µM (inactive) | GI50 (SK-MEL-2): > 100 µM (inactive) | GI50 (RPMI-8226): > 100 µM (inactive) | GI50 (LOX IMVI): > 100 µM (inactive) | GI50 (HL-60): > 100 µM (inactive) | GI50 (SF-295): > 100 µM (inactive) | GI50 (ACHN): > 100 µM (inactive) | GI50 (MDA-MB-231): > 100 µM (inactive) | GI50 (EKVX): > 100 µM (inactive) | GI50 (MDA-N): > 100 µM (inactive) | GI50 (SNB-19): > 100 µM (inactive) | GI50 (BT-549): > 100 µM (inactive) | GI50 (U-251): > 100 µM (inactive) | GI50 (SNB-75): > 100 µM (inactive) | GI50 (HCT-116): > 100 µM (inactive) | GI50 (SK-MEL-5): > 100 µM (inactive) | GI50 (786-0): > 100 µM (inactive)

C=C(C)[C@H]1C2=CC(C(=O)OC)=C(C[C@H](C(=C)C)[C@@H](O)[C@@H](O)C3=C[C@H]1OC3=O)O2
GI50 (HCT-15): 59.8 µM | GI50 (HOP-62): > 100 µM (inactive) | GI50 (Malme-3M): > 100 µM (inactive) | GI50 (SK-MEL-2): > 100 µM (inactive) | GI50 (RPMI-8226): > 100 µM (inactive) | GI50 (LOX IMVI): > 100 µM (inactive) | GI50 (HL-60): 61 µM (inactive) | GI50 (SF-295): > 100 µM (inactive) | GI50 (ACHN): > 100 µM (inactive) | GI50 (MDA-MB-231): > 100 µM (inactive) | GI50 (EKVX): > 100 µM (inactive) | GI50 (MDA-N): > 100 µM (inactive) | GI50 (SNB-19): > 100 µM (inactive) | GI50 (BT-549): > 100 µM (inactive) | GI50 (U-251): > 100 µM (inactive) | GI50 (SNB-75): 37.7 µM (inactive) | GI50 (HCT-116): > 100 µM (inactive) | GI50 (SK-MEL-5): > 100 µM (inactive) | GI50 (786-0): > 100 µM (inactive)

CC(C)=C[C@H]1C[C@H](C)[C@H]2CC[C@H](C)c3c2c1c(C)c1ncoc31
GI50 (HCT-15): 19.1 µM | GI50 (Malme-3M): 13.5 µM (inactive) | GI50 (SK-MEL-28): 18.7 µM (inactive) | GI50 (SK-MEL-2): 14.9 µM (inactive) | GI50 (RPMI-8226): 12.2 µM (inactive) | GI50 (LOX IMVI): 20.1 µM (inactive) | GI50 (HL-60): 11.5 µM (inactive) | GI50 (SF-295): 17 µM (inactive) | GI50 (ACHN): 18.1 µM (inactive) | GI50 (MDA-MB-231): 20.4 µM (inactive) | GI50 (EKVX): 15.9 µM (inactive) | GI50 (MDA-N): 17.5 µM (inactive) | GI50 (SNB-19): 14.6 µM (inactive) | GI50 (BT-549): 21.1 µM (inactive) | GI50 (U-251): 16.8 µM (inactive) | GI50 (SNB-75): 18.8 µM (inactive) | GI50 (HCT-116): 18.6 µM (inactive) | GI50 (SK-MEL-5): 13.9 µM (inactive) | GI50 (786-0): 18.5 µM (inactive)

CC(=O)c1c2n(n(-c3ccccc3)c1=O)C(=O)c1nccnc1-2
GI50 (HCT-15): > 100 µM | GI50 (Malme-3M): > 100 µM (inactive) | GI50 (SK-MEL-28): > 100 µM (inactive) | GI50 (SK-MEL-2): > 100 µM (inactive) | GI50 (RPMI-8226): > 100 µM (inactive) | GI50 (LOX IMVI): > 100 µM (inactive) | GI50 (HL-60): > 100 µM (inactive) | GI50 (SF-295): > 100 µM (inactive) | GI50 (ACHN): > 100 µM (inactive) | GI50 (MDA-MB-231): > 100 µM (inactive) | GI50 (EKVX): > 100 µM (inactive) | GI50 (MDA-N): > 100 µM (inactive) | GI50 (SNB-19): > 100 µM (inactive) | GI50 (BT-549): > 100 µM (inactive) | GI50 (U-251): > 100 µM (inactive) | GI50 (SNB-75): 54.1 µM (inactive) | GI50 (HCT-116): > 100 µM (inactive) | GI50 (SK-MEL-5): > 100 µM (inactive) | GI50 (786-0): > 100 µM (inactive)
